# Experimental data from PubChem BioAssay (NCI).
#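 Values below derive from 48-hour exposures of cells grown in 96-well plates, with endpoints linearly interpolated between the two concentrations bracketing the appropriate inhibition level. TGI: concentration producing complete growth inhibition.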
# Experiments:
# Experiment in all cases: NCI-60 cell line screen, 48 h
# KM12 colon = tested on: KM12 colon
# HOP-62 NSCLC = tested on: HOP-62 NSCLC
# SK-MEL-5 melanoma = tested on: SK-MEL-5 melanoma
# MDA-N = tested on: MDA-N
# SF-268 CNS = tested on: SF-268 CNS
# EKVX NSCLC = tested on: EKVX NSCLC
# M14 melanoma = tested on: M14 melanoma
# OVCAR-5 ovarian = tested on: OVCAR-5 ovarian
# LOX IMVI melanoma = tested on: LOX IMVI melanoma
# RPMI-8226 leukemia = tested on: RPMI-8226 leukemia
# HOP-92 NSCLC = tested on: HOP-92 NSCLC
# HCT-15 colon = tested on: HCT-15 colon
# MDA-MB-231 breast = tested on: MDA-MB-231 breast
# OVCAR-8 ovarian = tested on: OVCAR-8 ovarian
# TK-10 renal = tested on: TK-10 renal
# U251 CNS = tested on: U251 CNS
# PC-3 prostate = tested on: PC-3 prostate
# MCF7 breast = tested on: MCF7 breast
# A498 renal = tested on: A498 renal
# NCI-H226 lung = tested on: NCI-H226 lung
# SK-MEL-2 melanoma = tested on: SK-MEL-2 melanoma
# CAKI-1 renal = tested on: CAKI-1 renal
# SNB-19 CNS = tested on: SNB-19 CNS
# CCRF-CEM leukemia = tested on: CCRF-CEM leukemia
# DU-145 prostate = tested on: DU-145 prostate
# T-47D breast = tested on: T-47D breast
# NCI-H522 lung = tested on: NCI-H522 lung
# HL-60(TB) leukemia = tested on: HL-60(TB) leukemia
# SNB-75 CNS = tested on: SNB-75 CNS
# NCI-H23 lung = tested on: NCI-H23 lung
# A549 NSCLC = tested on: A549 NSCLC
# OVCAR-3 ovarian = tested on: OVCAR-3 ovarian
# SK-MEL-28 melanoma = tested on: SK-MEL-28 melanoma
# HT29 colon = tested on: HT29 colon
# SN12C renal = tested on: SN12C renal
# SK-OV-3 ovarian = tested on: SK-OV-3 ovarian
# K-562 leukemia = tested on: K-562 leukemia
# IGROV1 ovarian = tested on: IGROV1 ovarian
# ACHN renal = tested on: ACHN renal
# SW-620 colon = tested on: SW-620 colon
# UACC-62 melanoma = tested on: UACC-62 melanoma
# MDA-MB-435 = tested on: MDA-MB-435
# SR leukemia = tested on: SR leukemia
# MOLT-4 leukemia = tested on: MOLT-4 leukemia
# 786-0 renal = tested on: 786-0 renal
# UO-31 renal = tested on: UO-31 renal
# HCT-116 colon = tested on: HCT-116 colon
# OVCAR-4 ovarian = tested on: OVCAR-4 ovarian
# SF-539 CNS = tested on: SF-539 CNS
# COLO 205 colon = tested on: COLO 205 colon
# NCI-H460 lung = tested on: NCI-H460 lung
# NCI/ADR-RES ovarian = tested on: NCI/ADR-RES ovarian
# SF-295 CNS = tested on: SF-295 CNS
# UACC-257 melanoma = tested on: UACC-257 melanoma
# HS 578T breast = tested on: HS 578T breast
# RXF 393 renal = tested on: RXF 393 renal
smiles,measurement,setting,value
C=CCCC1CCCCC/C1=N\N(C)C (stereo not given),TGI,KM12 colon,> 100 µM
same,TGI,HOP-62 NSCLC,> 100 µM
same,TGI,SK-MEL-5 melanoma,> 100 µM
same,TGI,MDA-N,> 100 µM
same,TGI,SF-268 CNS,> 100 µM
same,TGI,EKVX NSCLC,> 100 µM
same,TGI,M14 melanoma,> 100 µM
same,TGI,OVCAR-5 ovarian,> 100 µM
same,TGI,LOX IMVI melanoma,> 100 µM
same,TGI,RPMI-8226 leukemia,> 100 µM
same,TGI,HOP-92 NSCLC,> 100 µM
same,TGI,HCT-15 colon,> 100 µM
same,TGI,MDA-MB-231 breast,> 100 µM
same,TGI,OVCAR-8 ovarian,> 100 µM
same,TGI,TK-10 renal,> 100 µM
same,TGI,U251 CNS,> 100 µM
same,TGI,PC-3 prostate,> 100 µM
same,TGI,MCF7 breast,> 100 µM
same,TGI,A498 renal,> 100 µM
same,TGI,NCI-H226 lung,> 100 µM
same,TGI,SK-MEL-2 melanoma,> 100 µM
same,TGI,CAKI-1 renal,> 100 µM
same,TGI,SNB-19 CNS,> 100 µM
same,TGI,CCRF-CEM leukemia,> 100 µM
same,TGI,DU-145 prostate,> 100 µM
same,TGI,T-47D breast,> 100 µM
same,TGI,NCI-H522 lung,> 100 µM
same,TGI,HL-60(TB) leukemia,> 100 µM
same,TGI,SNB-75 CNS,> 100 µM
same,TGI,NCI-H23 lung,> 100 µM
same,TGI,A549 NSCLC,> 100 µM
same,TGI,OVCAR-3 ovarian,> 100 µM
same,TGI,SK-MEL-28 melanoma,> 100 µM
same,TGI,HT29 colon,> 100 µM
same,TGI,SN12C renal,> 100 µM
same,TGI,SK-OV-3 ovarian,> 100 µM
same,TGI,K-562 leukemia,> 100 µM
same,TGI,IGROV1 ovarian,> 100 µM
same,TGI,ACHN renal,> 100 µM
same,TGI,SW-620 colon,> 100 µM
same,TGI,UACC-62 melanoma,> 100 µM
same,TGI,MDA-MB-435,> 100 µM
same,TGI,SR leukemia,> 100 µM
same,TGI,MOLT-4 leukemia,> 100 µM
same,TGI,786-0 renal,> 100 µM
same,TGI,UO-31 renal,> 100 µM
same,TGI,HCT-116 colon,> 100 µM
same,TGI,OVCAR-4 ovarian,> 100 µM
same,TGI,SF-539 CNS,> 100 µM
same,TGI,COLO 205 colon,> 100 µM
same,TGI,NCI-H460 lung,> 100 µM
same,TGI,NCI/ADR-RES ovarian,> 100 µM
same,TGI,SF-295 CNS,> 100 µM
same,TGI,UACC-257 melanoma,> 100 µM
same,TGI,HS 578T breast,> 100 µM
COc1ccccc1-c1cc(=O)c2ccccc2n1C1CC1,TGI,KM12 colon,12 µM
same,TGI,HOP-62 NSCLC,15.4 µM
same,TGI,SK-MEL-5 melanoma,14.8 µM
same,TGI,MDA-N,18 µM
same,TGI,SF-268 CNS,20.5 µM
same,TGI,M14 melanoma,16.2 µM
same,TGI,RXF 393 renal,6.62 µM
same,TGI,OVCAR-5 ovarian,14.2 µM
same,TGI,LOX IMVI melanoma,15.5 µM
same,TGI,RPMI-8226 leukemia,5.64 µM
same,TGI,HOP-92 NSCLC,19.8 µM
same,TGI,HCT-15 colon,12.2 µM
same,TGI,MDA-MB-231 breast,16 µM
same,TGI,OVCAR-8 ovarian,18.1 µM
same,TGI,U251 CNS,14.2 µM
same,TGI,PC-3 prostate,27.8 µM
same,TGI,MCF7 breast,18.7 µM
same,TGI,NCI-H226 lung,15 µM
same,TGI,SK-MEL-2 melanoma,8.07 µM
same,TGI,CAKI-1 renal,14.1 µM
same,TGI,SNB-19 CNS,34.3 µM
same,TGI,CCRF-CEM leukemia,56.1 µM
same,TGI,DU-145 prostate,14.4 µM
same,TGI,T-47D breast,9.73 µM
same,TGI,NCI-H522 lung,5.63 µM
same,TGI,HL-60(TB) leukemia,35.5 µM
same,TGI,NCI-H23 lung,22.8 µM
same,TGI,A549 NSCLC,12.8 µM
same,TGI,OVCAR-3 ovarian,11 µM
same,TGI,HT29 colon,4.37 µM
same,TGI,SN12C renal,19.5 µM
same,TGI,SK-OV-3 ovarian,41.1 µM
same,TGI,K-562 leukemia,> 100 µM
same,TGI,IGROV1 ovarian,44 µM
same,TGI,ACHN renal,5.78 µM
same,TGI,SW-620 colon,15.8 µM
same,TGI,UACC-62 melanoma,11.5 µM
same,TGI,MDA-MB-435,12.5 µM
same,TGI,SR leukemia,18.7 µM
same,TGI,MOLT-4 leukemia,45.9 µM
same,TGI,786-0 renal,15.3 µM
same,TGI,UO-31 renal,19 µM
same,TGI,HCT-116 colon,10.4 µM
same,TGI,SF-539 CNS,16.5 µM
same,TGI,COLO 205 colon,11.1 µM
same,TGI,NCI-H460 lung,15.7 µM
same,TGI,NCI/ADR-RES ovarian,31.3 µM
same,TGI,SF-295 CNS,7.99 µM
same,TGI,UACC-257 melanoma,26.6 µM
same,TGI,HS 578T breast,25.7 µM
